Source: US9056133B2, “Pharmaceutical kit and method for treating cancer” (priority 2012, dated 2015)

Assays:
[1] = test system: SW1990 pancreatic tumoral cell line; test: Combined effect of AV25CDC 5/3 and gemcitabine, MTT cell viability; assay type: cell-based, human; settings: alone or 24 h after virus at MOI 0.1, MTT six days later
Procedure: FIG. 8. In vitro synergic effect of AV25CDC 5/3 and gemcitabine in pancreatic tumoral cell line SW1990. Cells were infected with AV25CDC 5/3, at a MOI of 0.1 and 24 hours later gemcitabine was added at concentrations of 0.01 uM and 0.1 uM. Six days later, cell viability was measured using MTT assay.
Pancreatic tumoral cell lines (SW1990) were plated and infected with AV25CDC 5/3, at a MOI of 0.1 and 24 hours later, gemcitabine was added in concentrations of 0.01 uM and 0.1 uM. Six days later, cell viability was measured using MTT assay. There was no decrease on viability if only AV25CDC 5/3 is used at a MOI of 0.1, as well as no decrease was found adding gemcitabine at 0.01 uM. Nevertheless, the combination of both produced a decrease in cell viability of 20%. Using a higher concentration of gemcitabine, of 0.1 uM, on its own produced a decrease in viability of 20%, but combined with AV25CDC 5/3 at a MOI of 0.1, the viability decrease of 40%, considering the control (FIG. 8).

[2] = Biochemical profile and Ca 19.9 tumoral marker of treated animals at day 40; assay type: in vivo, athymic mice N:NIH(S)-nu
Procedure: Also, to evaluate efficacy of AV25CDC 5/3, on orthotopic tumors caused by SW1990 cells, E4 expression was evaluated at day 40, where an average of […] viral particles were found in the tumor indicating an active replication. On the other hand, biochemical parameters were evaluated at day 40, determining amylase, total and direct bilirubin, alkaline phosphatase (ALP) and aspartate aminotransferase (AST).
Tumoral marker levels Ca 19.9 were also determined.

## Nc1ccn([C@@H]2O[C@H](CO)[C@@H](O)C2(F)F)c(=O)n1 [gemcitabine]
[1]; Homo sapiens, gemcitabine 0.1 uM, vs control, read-out: decrease in cell viability
  cytotoxicity at 0.1 µM: 20%
[1]; gemcitabine 0.01 uM
  decrease in cell viability: no decrease
[2]; average ± SD, day 40
  ALP: 119.3 ± 25 U/L
  Amylase: 1151 ± 386 U/L
  Direct bilirubin: 0.14 ± 0.02 mg/dL
  GOT (AST): 280 ± 64 U/L
  GPT (ALT): 47 ± 17 U/L
  Total Bilirubin: 0.78 ± 0.05 mg/dL
[2]; tumoral marker, individual samples, day 40 after injection of virus
  Ca 19.9: 27940 U/ml
